Laboratory results as given in patent US20100010219A1, “METHOD FOR PRODUCING PYRROLIDINE COMPOUND” (JAPAN TOBACCO INC., priority 2006, published 2010).
Where a name gives a salt, the structure may show the parent alone.

target: T1, human HSD-1 (recombinant HSD-1) (Homo sapiens, UniProt P28845); assay: HSD-1 activity inhibitory action in vitro (SPA, conversion of cortisone to cortisol); assay type: biochemical; conditions: recombinant human HSD-1 expressed using baculovirus system; 10 nM 3H cortisone, 500 μM NADPH; room temperature 90 to 120 min; read-out: hHSD1 (IC50 (nM))
T1 construct: made in house
T1 sequence (P28845 whole entry): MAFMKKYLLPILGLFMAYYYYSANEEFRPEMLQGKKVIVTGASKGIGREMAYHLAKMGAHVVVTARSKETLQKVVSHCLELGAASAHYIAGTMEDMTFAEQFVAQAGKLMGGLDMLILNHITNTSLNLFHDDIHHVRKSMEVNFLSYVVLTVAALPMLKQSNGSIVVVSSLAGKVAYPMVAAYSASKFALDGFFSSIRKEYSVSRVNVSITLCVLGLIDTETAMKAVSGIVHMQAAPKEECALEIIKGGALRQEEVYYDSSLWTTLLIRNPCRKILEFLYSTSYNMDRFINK

IC50, < 30 nM:
CN1CCN(C(=O)N2CCC(n3ncc(C(=O)N4CC[C@@H](c5ccccc5C(F)(F)F)C4)c3C3CC3)CC2)CC1 [Example 29, 1-{5-cyclopropyl-1-[1-(4-methylpiperazine-1-carbonyl)piperidin-4-yl]-1H-pyrazole-4-carbonyl}-[(S)-3-(2-trifluoromethylphenyl)]pyrrolidine hydrochloride]
NCCNC(=O)N1CCC(n2ncc(C(=O)N3CC[C@@H](c4ccccc4C(F)(F)F)C3)c2C2CC2)CC1 [Example 11, 1-{1-[1-(2-aminoethylcarbamoyl)piperidin-4-yl]-5-cyclopropyl-1H-pyrazole-4-carbonyl}-[(S)-3-(2-trifluoromethylphenyl)]pyrrolidine hydrochloride]
N#Cc1ccc(N2CCC(n3ncc(C(=O)N4CCC(c5ccccc5C(F)(F)F)C4)c3C3CC3)CC2)nc1 (stereo not shown) [Example 175, 1-{1-[1-(5-cyanopyridin-2-yl)piperidin-4-yl]-5-cyclopropyl-1H-pyrazole-4-carbonyl}-3-(2-trifluoromethylphenyl)pyrrolidine]
CN1CCC(NC(=O)N2CCC(n3ncc(C(=O)N4CC[C@@H](c5ccccc5C(F)(F)F)C4)c3C3CC3)CC2)CC1 [Example 42, 1-{5-cyclopropyl-1-[1-(1-methylpiperidin-4-yl-carbamoyl)piperidin-4-yl]-1H-pyrazole-4-carbonyl}-[(S)-3-(2-trifluoromethylphenyl)]pyrrolidine hydrochloride]
NC(=O)C1(CN2CCC(n3ncc(C(=O)N4CC[C@@H](c5ccccc5C(F)(F)F)C4)c3C3CC3)CC2)CC1 [Example 106, 1-{1-[1-(1-carbamoylcyclopropylmethyl)piperidin-4-yl]-5-cyclopropyl-1H-pyrazole-4-carbonyl}-[(S)-3-(2-trifluoromethylphenyl)]pyrrolidine hydrochloride]
O=C(NC1CCNCC1)N1CCC(n2ncc(C(=O)N3CC[C@@H](c4ccccc4C(F)(F)F)C3)c2C2CC2)CC1 [Example 37, 1-{5-cyclopropyl-1-[1-(piperidin-4-yl-carbamoyl)piperidin-4-yl]-1H-pyrazole-4-carbonyl}-[(S)-3-(2-trifluoromethylphenyl)]pyrrolidine hydrochloride]
CC1(c2c(C(=O)N3CCC(CO)(c4ccc(F)cc4)C3)cnn2C2CCN(c3ncccn3)CC2)CC1 (single isomer, unassigned; (+)) [Example 128, (+)-3-(4-fluorophenyl)-3-hydroxymethyl-1-{5-(1-methylcyclopropyl)-1-[1-(pyrimidin-2-yl)piperidin-4-yl]-1H-pyrazole-4-carbonyl}pyrrolidine hydrochloride]
O=C(O)c1csc(N2CCC(n3ncc(C(=O)N4CCC(c5ccccc5C(F)(F)F)C4)c3C3CC3)CC2)n1 (stereo not shown) [Example 116, 2-(4-{5-cyclopropyl-4-[3-(2-trifluoromethylphenyl)pyrrolidine-1-carbonyl]pyrazol-1-yl}piperidin-1-yl)thiazole-4-carboxylic acid]
C[C@@H](CO)NC(=O)N1CCC(n2ncc(C(=O)N3CC[C@@H](c4ccccc4C(F)(F)F)C3)c2C2CC2)CC1 [Example 23, 1-(5-cyclopropyl-1-{1-[(S)-2-hydroxy-1-methylethylcarbamoyl]piperidin-4-yl}-1H-pyrazole-4-carbonyl)-[(S)-3-(2-trifluoromethylphenyl)]pyrrolidine]
Cc1nc(N2CCC(n3ncc(C(=O)N4CC[C@@H](c5ccccc5C(F)(F)F)C4)c3C3CC3)CC2)n[nH]1 [Example 117, 1-{5-cyclopropyl-1-[1-(5-methyl-4H-[1,2,4]triazol-3-yl)piperidin-4-yl]-1H-pyrazole-4-carbonyl}-[(S)-3-(2-trifluoromethylphenyl)]pyrrolidine hydrochloride]
